Source: PubChem BioAssay (NCI)
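Five concentrations, 48 hours, 96-well plates. GI50 marks 50% less growth. TGI is the concentration that stops growth completely.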

Legend:
Experiment in all cases: NCI tumour cell line growth inhibition, 48 h
[1] = system: SW-620 colon
[2] = system: OVCAR-5 ovarian
[3] = system: A498 renal
[4] = system: SF-268 CNS
[5] = system: UO-31 renal
[6] = system: NCI-H23 lung
[7] = system: 786-0 renal
[8] = system: NCI-H226 lung
[9] = system: SF-539 CNS
[10] = system: SF-295 CNS

COc1ccc(C2=CSc3cc(Cl)c(C)cc3S(=O)(=O)N2C(C)=O)cc1 showed a GI50 [1] of 38.7 µM, a TGI [1] greater than 100 µM and a GI50 [2] of 52.7 µM. For the same compound, the TGI [2] was greater than 100 µM, the GI50 [3] was 59.5 µM and the TGI [3] was greater than 100 µM. It also gave a GI50 [4] of 29.1 µM, a TGI [4] greater than 100 µM and a GI50 [5] of 51.2 µM. The TGI [5] was greater than 100 µM, the GI50 [6] was 36.4 µM and the TGI [6] was greater than 100 µM. The GI50 [7] was 39.1 µM, the TGI [7] was greater than 100 µM and the GI50 [8] was 15.2 µM. The TGI [8] was 60 µM, the GI50 [9] was 33 µM and the TGI [9] was 78.6 µM.

CCN(CC)CC(C(=O)Nc1c(C)cccc1C)/C(C)=N\NC(=O)C[N+](C)(C)C (configuration not stated) was tested, and the TGI [1] was greater than 100 µM, the TGI [2] was greater than 100 µM and the TGI [4] was greater than 100 µM. For the same compound, the TGI [5] was greater than 100 µM, the TGI [6] was greater than 100 µM and the TGI [7] was greater than 100 µM. The TGI [10] was greater than 100 µM, the TGI [8] was greater than 100 µM and the TGI [9] was greater than 100 µM.

Work on Cn1ccnc1C(=O)/C=C/c1ccc(CC(=O)Nc2ccc(Br)cc2)cc1 yielded a GI50 [1] of 4.15 µM, a TGI [1] of 13.4 µM and a GI50 [2] of 2.74 µM. For the same compound, the TGI [2] was 7.38 µM, the GI50 [3] was 4.35 µM and the TGI [3] was 12.6 µM. It also gave a GI50 [4] of 3.34 µM, a TGI [4] of 13 µM and a GI50 [5] of 2.19 µM. For the same compound, the TGI [5] was 4.39 µM, the GI50 [6] was 2.75 µM and the TGI [6] was 7.1 µM. It also gave a GI50 [7] of 2.77 µM, a TGI [7] of 5.92 µM and a GI50 [10] of 3.22 µM. It also gave a TGI [10] of 8.89 µM, a GI50 [8] of 4.15 µM and a TGI [8] greater than 16.7 µM. The GI50 [9] was 2.43 µM and the TGI [9] was 4.81 µM.

NC(CSC(c1ccccc1)(c1ccccc1)c1ccc2c(c1)OCO2)C(=O)O (configuration not stated) showed a GI50 [1] of 0.396 µM, a TGI [1] greater than 100 µM and a GI50 [2] of 7.22 µM. For the same compound, the TGI [2] was greater than 100 µM, the GI50 [3] was 0.518 µM and the TGI [3] was 30.5 µM. For the same compound, the GI50 [4] was 0.82 µM, the TGI [4] was greater than 77.6 µM and the GI50 [5] was 9.6 µM. For the same compound, the TGI [5] was greater than 100 µM, the GI50 [6] was 0.545 µM and the TGI [6] was 32 µM. It also gave a GI50 [7] of 2.96 µM, a TGI [7] greater than 89.4 µM and a GI50 [10] of 0.352 µM. For the same compound, the TGI [10] was greater than 48.4 µM, the GI50 [8] was 15.9 µM and the TGI [8] was greater than 84.8 µM. The GI50 [9] was 0.392 µM and the TGI [9] was greater than 41 µM.

O=C(O)C(Cc1ccccc1)N1C(=O)N/C(=C\c2ccc(F)cc2)C1=O (configuration not stated) showed a TGI [1] greater than 100 µM, a TGI [2] greater than 100 µM and a TGI [5] greater than 100 µM. The TGI [6] was greater than 100 µM, the TGI [7] was greater than 100 µM and the TGI [10] was greater than 100 µM. It also gave a TGI [8] greater than 100 µM and a TGI [9] greater than 100 µM.

For Cc1cc(=O)n2[nH]c(-c3ccc(C(C)(C)C)cc3)cc2n1, the GI50 [1] was 4.4 µM, the TGI [1] was greater than 100 µM and the GI50 [2] was 17.7 µM. The TGI [2] was greater than 100 µM, the GI50 [3] was 1.54 µM and the TGI [3] was 36.9 µM. For the same compound, the GI50 [4] was 7.85 µM, the TGI [4] was 72.8 µM and the GI50 [5] was 3.17 µM. The TGI [5] was greater than 100 µM, the GI50 [6] was 4.03 µM and the TGI [6] was 80.6 µM. It also gave a GI50 [7] of 10.3 µM, a TGI [7] greater than 100 µM and a GI50 [10] of 2.47 µM. It also gave a TGI [10] of 22.7 µM, a GI50 [8] of 5.28 µM and a TGI [8] greater than 100 µM. The GI50 [9] was 9.01 µM and the TGI [9] was greater than 100 µM.

O=c1n(CC2CO2)c(=O)n(CC2CO2)n1CC1CO1 (configuration not stated) was tested, and the GI50 [1] was 22.5 µM, the TGI [1] was greater than 100 µM and the GI50 [2] was 63.1 µM. For the same compound, the TGI [2] was greater than 100 µM, the GI50 [3] was 14.1 µM and the TGI [3] was 29.9 µM. The GI50 [4] was 15.7 µM, the TGI [4] was greater than 100 µM and the GI50 [5] was 7.86 µM. It also gave a TGI [5] greater than 76.2 µM, a GI50 [6] of 22.7 µM and a TGI [6] greater than 100 µM. For the same compound, the GI50 [7] was 4.78 µM, the TGI [7] was greater than 83.2 µM and the GI50 [10] was 3.65 µM. The TGI [10] was greater than 100 µM, the GI50 [8] was 40.6 µM and the TGI [8] was greater than 100 µM. For the same compound, the GI50 [9] was 4.89 µM and the TGI [9] was greater than 54.3 µM.

COc1ccc(/C=C\c2cc(OC)c3c(c2)OCO3)c(O)c1O was tested, and the TGI [1] was 26.1 µM, the TGI [2] was 55 µM and the TGI [3] was 31.2 µM. For the same compound, the TGI [4] was 18.8 µM, the TGI [5] was 12 µM and the TGI [6] was 22.3 µM. It also gave a TGI [7] of 14.7 µM, a TGI [10] of 36.8 µM and a TGI [8] of 45.9 µM. The TGI [9] was 4.57 µM.

Nc1cc2nc3ccccc3sc-2cc1=O showed a GI50 [1] of 2.95 µM, a TGI [1] of 10.4 µM and a GI50 [2] of 1.93 µM. It also gave a TGI [2] of 4.08 µM, a GI50 [3] of 2.32 µM and a TGI [3] of 8.71 µM. It also gave a GI50 [4] of 2.53 µM, a TGI [4] of 8.67 µM and a GI50 [5] of 1.33 µM. The TGI [5] was 3.36 µM, the GI50 [6] was 1.54 µM and the TGI [6] was 3.76 µM. For the same compound, the GI50 [7] was 4.21 µM, the TGI [7] was 14.5 µM and the GI50 [10] was 2.44 µM. For the same compound, the TGI [10] was 7.35 µM, the GI50 [8] was 4.62 µM and the TGI [8] was 28.4 µM. The GI50 [9] was 2.01 µM and the TGI [9] was 4.26 µM.

In the case of O=C1c2ccccc2C(=O)c2sc(Nc3cccc(Cl)c3)nc21, the TGI [1] is reported as 2.26 µM, the TGI [2] is reported as 4.78 µM and the TGI [3] is reported as 12.6 µM. The TGI [4] was 4.69 µM, the TGI [5] was 4 µM and the TGI [6] was 3.59 µM. The TGI [7] was 3.74 µM, the TGI [10] was 3.09 µM and the TGI [8] was 6.25 µM. For the same compound, the TGI [9] was 3.44 µM.

Fc1ccc(Nc2ncnc3ccc(-c4cnc5[nH]ccc5c4)cc23)cc1Cl gave a GI50 [1] of 4.02 µM, a TGI [1] greater than 47.3 µM and a GI50 [2] of 2.13 µM. For the same compound, the TGI [2] was 10.6 µM, the GI50 [4] was 3.47 µM and the TGI [4] was greater than 73.4 µM. The GI50 [5] was 0.6 µM, the TGI [5] was 2.38 µM and the GI50 [6] was 8.74 µM. For the same compound, the TGI [6] was greater than 100 µM, the GI50 [7] was 1.57 µM and the TGI [7] was 3.27 µM. For the same compound, the GI50 [10] was 2.73 µM, the TGI [10] was 11.2 µM and the GI50 [8] was 1.99 µM. It also gave a TGI [8] of 4.97 µM, a GI50 [9] of 2.3 µM and a TGI [9] of 7.65 µM.

O=[S@@]1Nc2ccc(Br)cc2S1 showed a TGI [1] greater than 100 µM, a TGI [4] greater than 100 µM and a TGI [5] of 7.43 µM. The TGI [6] was greater than 100 µM, the TGI [7] was greater than 100 µM and the TGI [10] was greater than 100 µM. For the same compound, the TGI [8] was greater than 100 µM and the TGI [9] was greater than 100 µM.

CCOC(=O)COc1cccc2c1C(=O)CCO2 was tested, and the TGI [1] was greater than 100 µM, the TGI [2] was greater than 100 µM and the TGI [3] was greater than 100 µM. For the same compound, the TGI [4] was greater than 100 µM, the TGI [5] was greater than 100 µM and the TGI [6] was greater than 100 µM. It also gave a TGI [7] greater than 100 µM, a TGI [10] greater than 100 µM and a TGI [9] greater than 100 µM.

Work on CN(CC(=O)O)S(=O)(=O)c1ccc2ccccc2c1 yielded a TGI [1] greater than 100 µM, a TGI [2] greater than 100 µM and a TGI [3] greater than 100 µM. The TGI [4] was greater than 100 µM, the TGI [5] was greater than 100 µM and the TGI [6] was greater than 100 µM. The TGI [7] was greater than 100 µM, the TGI [10] was greater than 100 µM and the TGI [9] was greater than 100 µM.

COC(=O)Nc1nc2ccc(S(=O)c3ccccc3)cc2[nH]1 (configuration not stated) was tested, and the GI50 [1] was 3.63 µM, the TGI [1] was greater than 100 µM and the GI50 [2] was 9.12 µM. The TGI [2] was greater than 100 µM, the GI50 [3] was 15.5 µM and the TGI [3] was greater than 100 µM. The GI50 [4] was greater than 100 µM, the TGI [4] was greater than 100 µM and the GI50 [5] was 8 µM. For the same compound, the TGI [5] was greater than 100 µM, the GI50 [6] was 8.79 µM and the TGI [6] was greater than 100 µM. For the same compound, the GI50 [7] was 5.2 µM, the TGI [7] was greater than 100 µM and the GI50 [8] was 4.06 µM. It also gave a TGI [8] greater than 100 µM, a GI50 [9] of 4.64 µM and a TGI [9] of 58.5 µM.
